The test system of the experiment is MV-4-11 cells. In words: Gene expression microarray analysis (Affymetrix PrimeView) and GSEA. It is filed as cell-based, human. Also on record: RFU PODN (11730768_x_at) / Fold change /veh PODN (11730768_x_at) / RFU LINC00158 (11744669_a_at) / Fold change /veh LINC00158 (11744669_a_at) / RFU DUSP10 (11751237_a_at) / Fold change /veh DUSP10 (11751237_a_at) / RFU ID3 (11757404_x_at) / Fold change /veh ID3 (11757404_x_at) / RFU PLEKHG5 (11737974_s_at) / Fold change /veh PLEKHG5 (11737974_s_at) / RFU LRRC4B (11730491_at) / Fold change /veh LRRC4B (11730491_at) / RFU GIMAP4 (11747438_a_at) / Fold change /veh GIMAP4 (11747438_a_at) / RFU KRT8 (11758183_x_at) / Fold change /veh KRT8 (11758183_x_at) / RFU CNN1 (11734310_a_at) / Fold change /veh CNN1 (11734310_a_at) / RFU VPS37D (11726825_at) / Fold change /veh VPS37D (11726825_at) / RFU C10orf10 (11716522_x_at) / Fold change /veh C10orf10 (11716522_x_at) / RFU KIR2DL2 /// KIR2DL4 /// KIR2DL5A /// KIR2DL5B /// KIR2DS1 /// KIR2DS2 /// KIR2DS3 /// KIR2DS4 /// KIR3DL3 /// KIR3DL3 /// KIR3DS1 (11738374_at) / Fold change /veh KIR2DL2 /// KIR2DL4 /// KIR2DL5A /// KIR2DL5B /// KIR2DS1 /// KIR2DS2 /// KIR2DS3 /// KIR2DS4 /// KIR3DL3 /// KIR3DL3 /// KIR3DS1 (11738374_at) / RFU C1QL1 (11718748_at) / Fold change /veh C1QL1 (11718748_at) / RFU TMPRSS4 (11747572_a_at) / Fold change /veh TMPRSS4 (11747572_a_at) / RFU HAMP (11756126_x_at) / Fold change /veh HAMP (11756126_x_at) / RFU RNFT2 (11725882_a_at) / Fold change /veh RNFT2 (11725882_a_at) / RFU NR4A2 (11747474_a_at) / Fold change /veh NR4A2 (11747474_a_at) / RFU ABCC12 (11746883_a_at) / Fold change /veh ABCC12 (11746883_a_at) / RFU TMEM136 (11760407_x_at) / Fold change /veh TMEM136 (11760407_x_at) / RFU CLDN22 /// WWC2 (11732394_at) / Fold change /veh CLDN22 /// WWC2 (11732394_at) / RFU HLA-DPB1 (11760878_x_at) / Fold change /veh HLA-DPB1 (11760878_x_at) / RFU SPINT1 (11716480_a_at) / Fold change /veh SPINT1 (11716480_a_at) / RFU GAP43 (11754022_s_at) / Fold change /veh GAP43 (11754022_s_at) / RFU A4GNT (11735810_at) / Fold change /veh A4GNT (11735810_at) / RFU PRB3 (11715151_x_at) / Fold change /veh PRB3 (11715151_x_at) / RFU TUBB4B (11761932_at) / Fold change /veh TUBB4B (11761932_at) / RFU CAPN14 (11732068_a_at) / Fold change /veh CAPN14 (11732068_a_at) / RFU TMCC2 (11721928_a_at) / Fold change /veh TMCC2 (11721928_a_at) / RFU IRGQ (11745062_a_at) / Fold change /veh IRGQ (11745062_a_at) / RFU FAM174B (11720279_a_at) / Fold change /veh FAM174B (11720279_a_at) / RFU TMPRSS4 (11748680_a_at) / Fold change /veh TMPRSS4 (11748680_a_at) / RFU FAM212B (11763350_a_at) / Fold change /veh FAM212B (11763350_a_at) / RFU PLEKHG5 (11743358_a_at) / Fold change /veh PLEKHG5 (11743358_a_at) / RFU ZSCAN30 (11745921_a_at) / Fold change /veh ZSCAN30 (11745921_a_at) / RFU CMKLR1 (11741424_a_at) / Fold change /veh CMKLR1 (11741424_a_at) / RFU LOC101060620 /// MAPK8IP1 (11723275_at) / Fold change /veh LOC101060620 /// MAPK8IP1 (11723275_at) / RFU SPTSSB (11747773_x_at) / Fold change /veh SPTSSB (11747773_x_at) / RFU PRSS12 (11739890_at) / Fold change /veh PRSS12 (11739890_at) / RFU BIN1 (11741810_x_at) / Fold change /veh BIN1 (11741810_x_at) / RFU WNT11 (11732464_a_at) / Fold change /veh WNT11 (11732464_a_at) / RFU C10orf10 (11716521_a_at) / Fold change /veh C10orf10 (11716521_a_at) / RFU C5orf56 (11738089_at) / Fold change /veh C5orf56 (11738089_at) / RFU CYB561 (11721691_x_at) / Fold change /veh CYB561 (11721691_x_at) / RFU ANKRD19P (11752326_a_at) / Fold change /veh ANKRD19P (11752326_a_at) / RFU OR2T12 /// OR2T33 /// OR2T8 (11738714_s_at) / Fold change /veh OR2T12 /// OR2T33 /// OR2T8 (11738714_s_at) / RFU VCAN (11748164_a_at) / Fold change /veh VCAN (11748164_a_at) / RFU JSRP1 (11732532_at) / Fold change /veh JSRP1 (11732532_at) / RFU KRTAP10-11 (11738290_x_at) / Fold change /veh KRTAP10-11 (11738290_x_at) / RFU MYO3A (11730013_a_at) / Fold change /veh MYO3A (11730013_a_at) / RFU EBF3 (11725865_a_at) / Fold change /veh EBF3 (11725865_a_at) / RFU CAMK2N1 (11719241_x_at) / Fold change /veh CAMK2N1 (11719241_x_at) / RFU C5orf56 (11738088_a_at) / Fold change /veh C5orf56 (11738088_a_at) / RFU OLFML3 (11715873_a_at) / Fold change /veh OLFML3 (11715873_a_at) / RFU LOC100653217 /// NTM (11731650_a_at) / Fold change /veh LOC100653217 /// NTM (11731650_a_at) / RFU MAPK11 (11762145_a_at) / Fold change /veh MAPK11 (11762145_a_at) / RFU FIZ1 (11724087_x_at) / Fold change /veh FIZ1 (11724087_x_at) / RFU OASL (11726364_x_at) / Fold change /veh OASL (11726364_x_at) / RFU SOX15 (11748057_x_at) / Fold change /veh SOX15 (11748057_x_at) / RFU CD79A (11719716_a_at) / Fold change /veh CD79A (11719716_a_at) / RFU HIST1H1D (11736915_at) / Fold change /veh HIST1H1D (11736915_at) / RFU CASKIN2 (11723855_a_at) / Fold change /veh CASKIN2 (11723855_a_at) / RFU LOC730098 (11760151_x_at) / Fold change /veh LOC730098 (11760151_x_at) / RFU OR4N2 (11742367_at) / Fold change /veh OR4N2 (11742367_at) / RFU PRRT2 (11749266_a_at) / Fold change /veh PRRT2 (11749266_a_at) / RFU SNX32 (11753110_a_at) / Fold change /veh SNX32 (11753110_a_at) / RFU CDHR5 (11726645_a_at) / Fold change /veh CDHR5 (11726645_a_at) / RFU RCAN1 (11760418_a_at) / Fold change /veh RCAN1 (11760418_a_at) / RFU FAM167A (11723789_a_at) / Fold change /veh FAM167A (11723789_a_at) / RFU FAM26E (11764081_at) / Fold change /veh FAM26E (11764081_at) / RFU ISYNA1 (11749810_s_at) / Fold change /veh ISYNA1 (11749810_s_at) / RFU ACY1 (11761880_at) / Fold change /veh ACY1 (11761880_at) / RFU 11764098_at / Fold change /veh 11764098_at / RFU SAMD14 (11745864_x_at) / Fold change /veh SAMD14 (11745864_x_at) / RFU NPB (11741838_a_at) / Fold change /veh NPB (11741838_a_at) / RFU TMPRSS6 (11731388_a_at) / Fold change /veh TMPRSS6 (11731388_a_at) / RFU KRTAP10-2 (11738614_at) / Fold change /veh KRTAP10-2 (11738614_at) / RFU ARHGAP8 /// PRR5-ARHGAP8 (11727945_x_at) / Fold change /veh ARHGAP8 /// PRR5-ARHGAP8 (11727945_x_at) / RFU KRTAP5-7 /// NADSYN1 (11734609_at) / Fold change /veh KRTAP5-7 /// NADSYN1 (11734609_at) / RFU RASL12 (11751679_a_at) / Fold change /veh RASL12 (11751679_a_at) / RFU CDKN2B (11736163_a_at) / Fold change /veh CDKN2B (11736163_a_at) / RFU PRF1 (11729649_at) / Fold change /veh PRF1 (11729649_at) / RFU, ZNF638 /// ZNF638-IT1 / Fold change vs veh, ZNF638 /// ZNF638-IT1 / RFU, PANK3 / Fold change vs veh, PANK3 / RFU, SH3YL1 / Fold change vs veh, SH3YL1 / RFU, ZEB2 / Fold change vs veh, ZEB2 / RFU, NRIP1 / Fold change vs veh, NRIP1 / RFU, PTTG1IP / Fold change vs veh, PTTG1IP / RFU, CAPN2 / Fold change vs veh, CAPN2 / RFU, MED14 / Fold change vs veh, MED14 / RFU, SNORA58 / Fold change vs veh, SNORA58 / RFU, C1orf63 / Fold change vs veh, C1orf63 / RFU, LRRFIP1 / Fold change vs veh, LRRFIP1 / RFU, NDUFAF7 / Fold change vs veh, NDUFAF7 / RFU, SLC12A2 / Fold change vs veh, SLC12A2 / RFU, IBTK / Fold change vs veh, IBTK / RFU, ESF1 / Fold change vs veh, ESF1 / Fold change vs veh, TMEM50B / RFU, TAOK1 / Fold change vs veh, TAOK1 / RFU, ACBD3 / Fold change vs veh, ACBD3 / RFU, TMA16 / Fold change vs veh, TMA16 / RFU, RWDD3 / Fold change vs veh, RWDD3 / RFU, BCAT1 / Fold change vs veh, BCAT1 / RFU, EDEM3 / Fold change vs veh, EDEM3 / RFU, TMEM33 / Fold change vs veh, TMEM33 / RFU, WDR75 / Fold change vs veh, WDR75 / RFU, AHCTF1 / Fold change vs veh, AHCTF1 / RFU, TFRC / Fold change vs veh, TFRC / RFU, ZDHHC17 / Fold change vs veh, ZDHHC17 / RFU, NOM1 / Fold change vs veh, NOM1 / RFU, ARL8B / Fold change vs veh, ARL8B / RFU, ZBTB11 / Fold change vs veh, ZBTB11 / RFU, TAMM41 / Fold change vs veh, TAMM41 / RFU, KIAA1704 /// LOC100996395 / Fold change vs veh, KIAA1704 /// LOC100996395 / RFU, ING1 / Fold change vs veh, ING1 / RFU, TRMT61B / Fold change vs veh, TRMT61B / RFU, FUBP3 / Fold change vs veh, FUBP3 / RFU, TP53 / Fold change vs veh, TP53 / RFU, TNKS2 / Fold change vs veh, TNKS2 / RFU, ZFP14 / Fold change vs veh, ZFP14 / RFU, ACTR2 / Fold change vs veh, ACTR2 / RFU, PPP3R1 / Fold change vs veh, PPP3R1 / RFU, PIK3R1 / Fold change vs veh, PIK3R1 / RFU, HNRNPA1 / Fold change vs veh, HNRNPA1 / RFU, RNF170 / Fold change vs veh, RNF170 / RFU, ZNF28 / Fold change vs veh, ZNF28 / RFU, RNGTT / Fold change vs veh, RNGTT / RFU, OGT / Fold change vs veh, OGT / RFU, BRD1 / Fold change vs veh, BRD1 / RFU, MARS / Fold change vs veh, MARS / RFU, ZNF655 / Fold change vs veh, ZNF655 / RFU, FAHD1 / Fold change vs veh, FAHD1 / RFU, BDP1 / Fold change vs veh, BDP1 / RFU, LRRCC1 / Fold change vs veh, LRRCC1 / RFU, ARID1A / Fold change vs veh, ARID1A / RFU, ZNF146 / Fold change vs veh, ZNF146 / RFU, ZNF330 / Fold change vs veh, ZNF330 / RFU, GPN3 / Fold change vs veh, GPN3 / RFU, C9orf123 / Fold change vs veh, C9orf123 / RFU, N4BP2L2 / Fold change vs veh, N4BP2L2 / RFU, ARFIP1 / Fold change vs veh, ARFIP1 / RFU, FAM179B / Fold change vs veh, FAM179B / RFU, BCL10 / Fold change vs veh, BCL10 / RFU, UHRF1BP1L / Fold change vs veh, UHRF1BP1L / RFU, BET1 / Fold change vs veh, BET1 / RFU, CNOT2 / Fold change vs veh, CNOT2 / RFU, ZNF268 / Fold change vs veh, ZNF268 / Fold change vs veh, ZNF507 / RFU, DGCR2 / Fold change vs veh, DGCR2 / RFU, WDSUB1 / Fold change vs veh, WDSUB1 / Fold change vs veh, HSP90B1 /// MIR3652 / RFU, ADSS / Fold change vs veh, ADSS / RFU, GK / Fold change vs veh, GK / RFU, ZNF148 / Fold change vs veh, ZNF148 / RFU, TAF9 / Fold change vs veh, TAF9 / RFU, SLC1A5 / Fold change vs veh, SLC1A5 / RFU, SLMO2 / Fold change vs veh, SLMO2 / RFU, ABCC4 / Fold change vs veh, ABCC4 / RFU, LOC101060439 /// RAP1B / Fold change vs veh, LOC101060439 /// RAP1B / RFU, RFX7 / Fold change vs veh, RFX7 / RFU, GTPBP10 / Fold change vs veh, GTPBP10 / RFU, CNEP1R1 / Fold change vs veh, CNEP1R1 / RFU, BIVM-ERCC5 /// ERCC5 / Fold change vs veh, BIVM-ERCC5 /// ERCC5 / RFU, ILF3 / Fold change vs veh, ILF3 / RFU 11762660_at / Fold change /veh 11762660_at / RFU VCAN (11757783_s_at) / Fold change /veh VCAN (11757783_s_at) / RFU DDX43 (11728927_at) / Fold change /veh DDX43 (11728927_at) / RFU KRT8 (11758188_x_at) / Fold change /veh KRT8 (11758188_x_at) / RFU NKD1 (11759106_at) / Fold change /veh NKD1 (11759106_at) / RFU SRD5A1 (11742802_a_at) / Fold change /veh SRD5A1 (11742802_a_at) / RFU TPSAB1 /// TPSB2 (11721975_s_at) / Fold change /veh TPSAB1 /// TPSB2 (11721975_s_at) / RFU GSTM3 (11746129_a_at) / Fold change /veh GSTM3 (11746129_a_at) / RFU IL23R (11737362_x_at) / Fold change /veh IL23R (11737362_x_at) / RFU TMEM51 (11727254_a_at) / Fold change /veh TMEM51 (11727254_a_at) / RFU PIWIL2 (11732686_x_at) / Fold change /veh PIWIL2 (11732686_x_at) / RFU ORM1 (11744905_x_at) / Fold change /veh ORM1 (11744905_x_at) / RFU CCDC152 (11743942_at) / Fold change /veh CCDC152 (11743942_at) / RFU ECM1 (11717891_a_at) / Fold change /veh ECM1 (11717891_a_at) / RFU IL23R (11748794_a_at) / Fold change /veh IL23R (11748794_a_at) / RFU TNFAIP8L3 (11732012_x_at) / Fold change /veh TNFAIP8L3 (11732012_x_at) / RFU MBOAT4 (11741988_at) / Fold change /veh MBOAT4 (11741988_at) / RFU 11764193_at / Fold change /veh 11764193_at / RFU TMEM53 (11763286_at) / Fold change /veh TMEM53 (11763286_at) / RFU MAGEB2 (11727129_at) / Fold change /veh MAGEB2 (11727129_at) / RFU TMEM200A (11744735_a_at) / Fold change /veh TMEM200A (11744735_a_at) / RFU CCDC152 (11751479_a_at) / Fold change /veh CCDC152 (11751479_a_at) / RFU FAM211A (11726209_a_at) / Fold change /veh FAM211A (11726209_a_at) / RFU RGS16 (11746705_a_at) / Fold change /veh RGS16 (11746705_a_at) / RFU VCAN (11755009_s_at) / Fold change /veh VCAN (11755009_s_at) / RFU RHOB (11743442_s_at) / Fold change /veh RHOB (11743442_s_at) / RFU RGS16 (11720943_a_at) / Fold change /veh RGS16 (11720943_a_at) / RFU RGS16 (11720944_at) / Fold change /veh RGS16 (11720944_at) / RFU, VPS4B / Fold change vs veh, VPS4B / RFU, CREB1 / Fold change vs veh, CREB1 / RFU, DNAJC13 / Fold change vs veh, DNAJC13 / RFU, GNAQ / Fold change vs veh, GNAQ / RFU, CDK5R1 / Fold change vs veh, CDK5R1 / RFU, ZRANB3 / Fold change vs veh, ZRANB3 / RFU, CUL4A / Fold change vs veh, CUL4A / RFU, CCNY / Fold change vs veh, CCNY / RFU, UFL1 / Fold change vs veh, UFL1 / RFU, COG3 / Fold change vs veh, COG3 / RFU, DIAPH2 / Fold change vs veh, DIAPH2 / RFU, SKA2 / Fold change vs veh, SKA2 / RFU, AFF3 / Fold change vs veh, AFF3 / RFU, LMF1 / Fold change vs veh, LMF1 / RFU, IPO11 / Fold change vs veh, IPO11 / RFU, DFFB / Fold change vs veh, DFFB / RFU, FOXP1 / Fold change vs veh, FOXP1 / RFU, CARD8 / Fold change vs veh, CARD8 / RFU, STRN3 / Fold change vs veh, STRN3 / RFU, ADK / Fold change vs veh, ADK / RFU, RASSF2 / Fold change vs veh, RASSF2 / RFU, WIPF1 / Fold change vs veh, WIPF1 / RFU, LARP1B / Fold change vs veh, LARP1B / RFU, RASA1 / Fold change vs veh, RASA1 / RFU, RB1 / Fold change vs veh, RB1 / RFU, PPFIA1 / Fold change vs veh, PPFIA1 / RFU, MAT2A / Fold change vs veh, MAT2A / RFU, CCT5 / Fold change vs veh, CCT5 / RFU, WDR92 / Fold change vs veh, WDR92 / RFU, CUX1 / Fold change vs veh, CUX1 / RFU, TTC7A / Fold change vs veh, TTC7A / RFU, TMEM135 / Fold change vs veh, TMEM135 / RFU, DEPTOR / Fold change vs veh, DEPTOR / RFU, CPM / Fold change vs veh, CPM / RFU, DNAJB6 / Fold change vs veh, DNAJB6 / RFU, CACNA2D3 / Fold change vs veh, CACNA2D3 / RFU, DTX4 / Fold change vs veh, DTX4 / RFU, TFCP2 / Fold change vs veh, TFCP2 / RFU, GMCL1 /// GMCL1P1 / Fold change vs veh, GMCL1 /// GMCL1P1 / RFU, AEBP2 / Fold change vs veh, AEBP2 / RFU, SNHG1 /// SNORD22 /// SNORD25 /// SNORD26 /// SNORD27 /// SNORD28 /// SNORD29 /// SNORD31 / Fold change vs veh, SNHG1 /// SNORD22 /// SNORD25 /// SNORD26 /// SNORD27 /// SNORD28 /// SNORD29 /// SNORD31 / Fold change (Aza/veh), C12orf56 (ProbeSet 11735607_a_at) / Fold change (ACY-1035/veh), C12orf56 (ProbeSet 11735607_a_at) / Fold change (Aza/veh), FGFR1OP (ProbeSet 11751329_s_at) / Fold change (ACY-1035/veh), FGFR1OP (ProbeSet 11751329_s_at) / Fold change (Aza/veh), VPS36 (ProbeSet 11739960_a_at) / Fold change (ACY-1035/veh), VPS36 (ProbeSet 11739960_a_at) / RFU SYPL1 (11715823_x_at) / Fold change /veh SYPL1 (11715823_x_at) / RFU IGFBP7 (11715501_s_at) / Fold change /veh IGFBP7 (11715501_s_at) / RFU REEP3 (11722064_at) / Fold change /veh REEP3 (11722064_at) / RFU IGLL1 (11728026_x_at) / Fold change /veh IGLL1 (11728026_x_at): dose or concentration left out as unconfirmed. The conditions noted are these: MV-4-11 cells, 48 hours.

In the case of `Nc1ccc(-c2cccs2)cc1NC(=O)c1ccc2c(c1)cc(C1CC1)n2CCN1CCOCC1` [ACY-1035], the “RFU SOX15 (11748057_x_at)” value is given as 11.14 RFU.
